Measurements taken from patent publication US10611751B2, “Dopamine D1 receptor positive allosteric modulators” (Eli Lilly and Company, priority 2018, dated 2020).
“Also recorded” adds a separate entry of the source. Marks after values point to notes of the source that are not given here.

How the values were obtained:
[1] = test system: human D1 receptor knock-in mice; assay: Basal (Habituated) Locomotor Activity; format: in vivo, mouse; conditions: for Basal Locomotor Activity (Total Ambulations for 60 min), mean: male human D1 knock-in mice, N = 8/group; for Effect on basal movement / locomotor activation (in words): oral dose response, habituated human D1 knock-in mice
Method: Locomotor activity is measured using an automated system to track movement in mice. Monitoring of mouse locomotor activity behaviors take place in transparent plastic shoebox cages having dimensions of 45×25×20 cm, with a 1 cm depth of wood chips for absorbent bedding, and covered with a ventilated filtered plastic cage top. Cages were placed in a rectangular frame containing a grid of 12 photocell beams in an 8×4 configuration (Kinder Scientific, Poway, Calif.) that is positioned 2.5 centimeters from the floor of the cage for the detection of body movements (ambulations) and recorded by computer.
Male human D1 receptor knock-in mice are placed in chambers and allowed to habituate to the chambers for 60 min. During the habituation period, the mice show decreasing locomotion over time, as expected. Following administration of a compound of the invention, animal movement is found to increase in a dose-dependent fashion.
The mice are randomly assigned to treatment groups. In the dose response study, each mouse is placed individually into one of the locomotor activity boxes for a 60 min. habituation period. The mice are then dosed orally using test compound in a 20% hydroxypropyl-betacyclodextrin vehicle and using a 10 mL/kg dose volume. After dosing, the mice are placed back into the LMA boxes and the total number of ambulations is recorded per 10 min interval for each mouse over a 60 min measurement period. Statistical analysis is carried out using one-way ANOVA followed by post-hoc analysis using Dunnett's Comparison test.

normal rats = assay: In vivo tolerability in normal rats; conditions: broad dose range
Source text: Compounds of the invention, for instance Example 1, show an advantageous combination of pharmacological properties, such as potentiation of human D1 receptor signaling in response to dopamine, high oral in vivo availabilty, in vivo efficacy in locomotor activation of animals that are habituated to the environment, and a favorable toxicity profile in preclinical testing. […].

| Compound | Basal Locomotor Activity (Total Ambulations for 60 min), mean ([1]; 1.0 mg/kg PO) | Basal Locomotor Activity (Total Ambulations for 60 min), mean ([1]; 3.0 mg/kg PO) | Basal Locomotor Activity (Total Ambulations for 60 min), mean ([1]; 6.0 mg/kg PO) | Basal Locomotor Activity (Total Ambulations for 60 min), mean ([1]; 10 mg/kg PO) | Basal Locomotor Activity (Total Ambulations for 60 min), mean ([1]; 30 mg/kg PO) | Effect on basal movement / locomotor activation (in words) [1] | Tolerability / toxicity in vivo (in words) (normal rats) | Basal Locomotor Activity (Total Ambulations for 60 min), mean ([1]; 20 mg/kg PO) | Basal Locomotor Activity (Total Ambulations for 60 min), mean ([1]; 60 mg/kg PO) |
| --- | --- | --- | --- | --- | --- | --- | --- | --- | --- |
| C[C@H]1c2cccc(-c3cnn(C)c3)c2C[C@H](CO)N1C(=O)Cc1c(Cl)cccc1Cl [Example 1, 2-(2,6-dichlorophenyl)-1-((1S,3R)-3-(hydroxymethyl)-1-methyl-5-(1-methyl-1H-pyrazol-4-yl)-3,4-dihydroisoquinolin-2(1H)-yl)ethan-1-one] | 410 | 490 | 1517* | 2426*** | 3568**** | increase basal movement in a dose dependent manner; also recorded: significant in vivo efficacy when orally administered at 6, 10, and 30 mg/kg PO | generally well tolerated | – | – |
| C[C@H]1c2cccc(-c3cn[nH]c3)c2C[C@H](CO)N1C(=O)Cc1c(Cl)cccc1Cl [Example 8, 2-(2,6-dichlorophenyl)-1-((1S,3R)-3-(hydroxymethyl)-1-methyl-5-(1H-pyrazol-4-yl)-3,4-dihydroisoquinolin-2(1H)-yl)ethan-1-one] | – | 335 | – | 753 | 3746** | increase basal movement in a dose dependent manner | – | 3629* | 4080 *** |
